ChEMBL document CHEMBL3351659, “Amine-linked diquercitols as new α-glucosidase inhibitors” (Bioorg Med Chem Lett, 2014)

Tests used:
[1] = Inhibition of alpha-glucosidase (unknown origin); set-up: species or system Homo sapiens
[2] = Inhibition of Baker's yeast alpha-glucosidase pre-incubated for 10 mins before para-nitrophenyl-alpha-D-glucopyranoside substrate addition; set-up: species or system Saccharomyces cerevisiae
[3] = Inhibition of rat intestinal maltase using maltose substrate incubated for 10 mins
[4] = target: Sucrase-isomaltase, intestinal (Rattus norvegicus, UniProt P23739); assay: Inhibition of rat intestinal sucrase using sucrose substrate incubated for 10 mins
Sequence of Sucrase-isomaltase, intestinal (P23739 1-1013 limits assumed): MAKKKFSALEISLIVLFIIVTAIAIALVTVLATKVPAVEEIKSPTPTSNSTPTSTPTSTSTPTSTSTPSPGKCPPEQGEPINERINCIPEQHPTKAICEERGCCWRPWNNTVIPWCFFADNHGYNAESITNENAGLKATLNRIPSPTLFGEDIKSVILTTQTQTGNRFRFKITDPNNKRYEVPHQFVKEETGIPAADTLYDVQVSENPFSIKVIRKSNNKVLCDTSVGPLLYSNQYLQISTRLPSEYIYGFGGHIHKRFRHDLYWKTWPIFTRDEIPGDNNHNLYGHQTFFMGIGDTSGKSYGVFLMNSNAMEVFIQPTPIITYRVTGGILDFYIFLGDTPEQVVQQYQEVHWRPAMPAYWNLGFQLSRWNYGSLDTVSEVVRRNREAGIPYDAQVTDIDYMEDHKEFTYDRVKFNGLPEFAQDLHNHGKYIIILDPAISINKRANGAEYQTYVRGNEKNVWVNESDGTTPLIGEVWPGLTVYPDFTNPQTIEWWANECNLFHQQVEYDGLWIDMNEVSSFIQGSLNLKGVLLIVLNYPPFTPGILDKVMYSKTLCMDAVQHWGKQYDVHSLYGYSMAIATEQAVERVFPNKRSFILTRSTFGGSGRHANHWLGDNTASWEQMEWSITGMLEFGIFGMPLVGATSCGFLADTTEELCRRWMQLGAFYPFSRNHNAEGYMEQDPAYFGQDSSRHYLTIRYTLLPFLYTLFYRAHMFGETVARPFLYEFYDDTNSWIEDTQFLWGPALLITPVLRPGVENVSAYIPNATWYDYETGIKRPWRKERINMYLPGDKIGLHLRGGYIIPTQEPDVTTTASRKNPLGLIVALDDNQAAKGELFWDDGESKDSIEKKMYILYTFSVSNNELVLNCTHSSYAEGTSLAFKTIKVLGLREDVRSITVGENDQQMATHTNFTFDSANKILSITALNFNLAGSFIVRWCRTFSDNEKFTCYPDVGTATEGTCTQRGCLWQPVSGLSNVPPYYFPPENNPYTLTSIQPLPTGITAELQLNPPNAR
Sequence of Sucrase-isomaltase, intestinal (P23739 1014-1841 limits assumed): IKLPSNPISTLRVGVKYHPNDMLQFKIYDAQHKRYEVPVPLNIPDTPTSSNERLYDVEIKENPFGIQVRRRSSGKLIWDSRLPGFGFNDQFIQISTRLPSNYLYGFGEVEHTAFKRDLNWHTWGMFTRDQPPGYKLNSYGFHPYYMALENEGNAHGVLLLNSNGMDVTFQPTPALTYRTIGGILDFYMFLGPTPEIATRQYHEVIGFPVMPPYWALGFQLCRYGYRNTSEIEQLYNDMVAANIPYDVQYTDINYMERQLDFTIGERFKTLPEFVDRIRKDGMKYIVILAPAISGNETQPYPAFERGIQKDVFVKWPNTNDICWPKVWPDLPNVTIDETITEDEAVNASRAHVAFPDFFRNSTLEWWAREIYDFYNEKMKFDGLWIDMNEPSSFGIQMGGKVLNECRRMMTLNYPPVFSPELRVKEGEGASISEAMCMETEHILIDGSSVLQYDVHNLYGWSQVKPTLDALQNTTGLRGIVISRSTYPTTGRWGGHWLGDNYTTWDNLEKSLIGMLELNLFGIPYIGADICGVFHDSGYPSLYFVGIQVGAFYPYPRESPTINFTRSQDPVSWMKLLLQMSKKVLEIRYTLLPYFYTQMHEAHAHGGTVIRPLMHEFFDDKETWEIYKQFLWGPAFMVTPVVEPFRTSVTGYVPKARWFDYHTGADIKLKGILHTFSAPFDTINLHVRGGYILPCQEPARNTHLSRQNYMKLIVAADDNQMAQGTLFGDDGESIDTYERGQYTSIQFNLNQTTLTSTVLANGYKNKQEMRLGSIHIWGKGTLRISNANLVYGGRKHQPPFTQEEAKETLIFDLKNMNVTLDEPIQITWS

SMILES | IC50 [1] | IC50 [2] | IC50 [3] | IC50 [4]
N[C@H]1[C@H](O)[C@H](O)[C@@H](O)[C@@H](O)[C@@H]1N[C@H]1[C@H](O)[C@H](O)[C@@H](O)[C@@H](O)[C@@H]1O | > 2000 µM | – | – | –
O[C@@H]1[C@@H](O)[C@H](O)C[C@H](N[C@H]2C[C@H](O)[C@@H](O)[C@H](O)[C@@H]2O)[C@@H]1O | – | 40.1 µM | 3.6 µM | 4 µM
O[C@H]1[C@H](O)[C@@H](N[C@H]2C=C[C@@H](O)[C@@H](O)[C@@H]2O)C=C[C@H]1O | 1400 µM | – | – | –
OC1CC(N[C@H]2C[C@@H](O)[C@H](O)[C@@H](O)[C@H]2O)[C@@H](O)[C@@H](O)[C@@H]1O (single isomer, unassigned) | – | 32.3 µM | 3.1 µM | 3.7 µM

The next lines start with results.

IC50 [1] | IC50 [2] | IC50 [3] | SMILES | IC50 [4]
370 µM | – | – | CC(=O)N([C@H]1[C@H](O)[C@H](O)[C@@H](O)[C@@H](O)[C@@H]1O)[C@H]1[C@H](O)[C@H](O)[C@@H](O)[C@@H](O)[C@@H]1O | –
– | 404 µM | 1.5 µM | C[C@H]1O[C@H](O[C@H]2[C@H](O)[C@@H](O)[C@@H](O[C@H]3[C@H](O)[C@@H](O)C(O)O[C@@H]3CO)O[C@@H]2CO)[C@H](O)[C@@H](O)[C@@H]1N[C@H]1C=C(CO)[C@@H](O)[C@H](O)[C@H]1O (some centres undefined) [ACARBOSE] | –
– | 2890 µM | 5.8 µM | N[C@H]1C[C@@H](O)[C@H](O)[C@@H](O)[C@H]1O | 7.3 µM
> 2000 µM | – | – | O[C@@H]1[C@@H](O)[C@@H](O)[C@H](N[C@H]2[C@H](O)[C@H](O)[C@@H](O)[C@@H](O)[C@@H]2O)[C@@H](O)[C@@H]1O | –
– | 12.5 µM | 4.4 µM | N[C@@H]1C[C@@H](O)[C@H](O)[C@@H](O)[C@H]1O | 6.8 µM
1350 µM | – | – | CC(=O)N([C@H]1C=C[C@@H](O)[C@@H](O)[C@@H]1O)[C@H]1C=C[C@@H](O)[C@@H](O)[C@@H]1O | –
